In publication PMC5424463, “A strategy based on nucleotide specificity leads to a subfamily-selective and cell-active inhibitor of N ^6-methyladenosine demethylase FTO” (Chemical Science, 2014):

Target: T1, PHD2 (Homo sapiens, UniProt Q9GZT9)
T1 construct: Full length human PHD2 (fused to a MYC/DDK tag at C-terminal); purchased Origene Technology, USA
Assay: MALDI-based inhibition assay for PHD2
Format: biochemical
Conditions: 19-mer peptide substrate
Description: IC50s were then calculated from the variation in percentage demethylation at different inhibitor concentrations, using nonlinear regression, with normalized dose-response fit on […]
MALDI-based inhibition assays for FTO and ALKBH5
The assay was modified from previously reported method.[5] An 8-mer m6A-ssDNA substrate with the sequence 5’-TCA(m6A)CAGC-3’ (Yale University, W.M. Keck Foundation Biotechnology Resource Laboratory) was used in this inhibition assay. The assay was performed in triplicate for each inhibitor, in a final reaction volume of 25 µL. Reaction consisted of FTO (2 µM) or ALKBH5 (4 µM), 2OG (150 µM), (NH4)2Fe(SO4)2·6H2O (150 µM), L-ascorbate (2 mM), m6A-ssDNA substrate (100 µM), in 50 mM HEPES buffer, pH 7.5, and inhibitor at various concentrations (final DMSO concentration not more than 1% v/v of assay mix). The reaction was incubated at room temperature for 30 min, before 1:1 quenching with 20% v/v formic acid. 1 uL of the diluted assay mixture was then mixed with 1 uL of 3-hydroxpicolinic acid (3-HPA, the MALDI-TOF-MS matrix, Sigma-Aldrich) and spotted onto the MALDI-TOF-MS plate before analysis. The 3-HPA matrix was prepared by mixing 9 parts of 50 mg/mL 3-hydroxpicolinic acid in 50% MeCN/Milli-Q H2O with 1 part of 50 mg/mL ammonium citrate in Milli-Q H2O. […]

T1 sequence (Q9GZT9 whole entry, the tested form may be a part): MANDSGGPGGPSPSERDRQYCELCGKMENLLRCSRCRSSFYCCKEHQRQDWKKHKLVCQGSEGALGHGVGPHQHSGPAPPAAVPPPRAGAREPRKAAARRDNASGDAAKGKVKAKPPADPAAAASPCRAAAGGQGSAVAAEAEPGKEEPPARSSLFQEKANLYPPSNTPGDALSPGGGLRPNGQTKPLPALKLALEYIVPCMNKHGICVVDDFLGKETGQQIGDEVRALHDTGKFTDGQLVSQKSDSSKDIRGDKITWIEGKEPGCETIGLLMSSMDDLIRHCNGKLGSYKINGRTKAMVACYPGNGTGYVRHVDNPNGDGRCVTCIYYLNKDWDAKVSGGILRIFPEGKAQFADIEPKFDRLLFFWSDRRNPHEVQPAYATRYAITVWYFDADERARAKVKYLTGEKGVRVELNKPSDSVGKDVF

O=C(O)/C=C/C(=O)NNC(=O)c1cnccc1Cc1ccccc1 [Compound 12]
IC50: > 100 µM
